Measured values reported in patent US20090170788A1, “NOVEL USE OF 1, 2, 3, 4, 6-PENTA-O-GALLOYL-BETA-D-GLUCOSE” (priority 2006, published 2009).

What was measured:
[1] = tested on: type I procollagen; assay: Type I procollagen expression (ELISA) in UV-irradiated human normal dermal fibroblasts; format: cell-based
Protocol: (§1) Human normal dermal fibroblasts, which were isolated and cultured from the skin dermal layer cut from infant phimosis, were seeded into a 6-well plate at a density of 1×10^5 cells/well, and then cultured in 10% fetal bovine serum-containing DMEM (Dulbecco's modified Eagle's medium) for 24 hours. After the culture, the cells were washed three times with phosphate buffered saline (PBS) and then irradiated with UV A and […] in the following manner in order to induce skin aging. UV A was irradiated using a UV A lamp (Sankyo Denki FL8BL lamp, Sankyo Denki Co., Japan) to a total energy dose of 50 mJ/cm^2 at a rate of 27 mW/cm^2/sec, and UV B was irradiated using a UV B lamp (Sankyo Denki G9T5E lamp, Sankyo Denki Co., Japan) to a total energy dose of 170 mJ/cm^2 at a rate of 1.15 mW/cm^2/sec. […] In order to examine if the skin was aged after the culture, the expression levels of skin intercellular matrix component type I procollagen and its degradation enzyme MMP-1 were measured using a type I procollagen ELISA kit (Procollagen Type I C-Peptide EIA kit, TaKaRa, Japan) and a MMP-1 ELISA kit (MMP-1 human, ELISA system, Biotrak Assay, Amersham Biosciences, USA) according to manufacturer's protocols. […]

[2] = tested on: MMP-1; assay: MMP-1 expression (ELISA) in UV-irradiated human normal dermal fibroblasts; format: cell-based
Protocol: as §1

[3] = tested on: COX-2; assay: COX-2 protein expression (Western blot) in UV B-irradiated human keratinocytes (HaCaT); format: cell-based; settings: HaCaT cells, UV B 10 mJ/cm^2, 1, 10, 30, 50 μM, 12 hours
Protocol: Human keratinocytes (HaCaT cell) provided by professor N. Fusenig (German Cancer Research, Germany) were seeded into a 100 mm culture dish to 1.3×10^6 cells, and then cultured in a DMEM medium containing 10% fetal bovine serum for 24 hours. After the culture, the cells were washed three times with phosphate buffered saline, and then irradiated with UV B in the following manner in order to induce skin aging. UV B was irradiated using an UV B lamp to a total energy dose of 10 mJ/cm^2 at a rate of 0.6 mW/cm^2/sec. Just after the UV irradiation, the cells were washed again with phosphate buffered saline, and 1,2,3,4,6-penta-O-galloyl-beta-D-glucose was added to a DMEM medium containing no fetal bovine serum at concentrations of 1, 10, 30, 50 μM. Then, the cells were further cultured in the medium for 12 hours. Test groups were divided as follows: After the 12-hr culture, the cells were washed with cold phosphate buffered saline, and then treated with lysis buffer to separate a cell protein. Then, the cell protein was subjected to Western blot analysis using a COX-2 antibody (Santa Cruz Biotch., USA) and a horseradish peroxidase-conjugated secondary antibody (ZYMED Laboratories, USA). As a loading control group, […] was used.

[4] = tested on: albino SKH-1 hairless mice; assay: Wrinkle formation caused by UV light in hairless mouse model (skin photographs, skin replica); format: in vivo; settings: UV B 10 weeks, topical 10 mg/200 μl/4 cm^2 starting from 4 weeks after UV irradiation
Excerpt: Whether 1,2,3,4,6-penta-O-galloyl-beta-D-glucose has the effect of inhibiting wrinkle formation caused by UV light was examined. First, 7-week-old female hairless mice (albino SKH-1 hairless mice, Hanlim Experimental Animal Co., Suwon, Korea) were divided into the following three groups, each consisting of 10 animals.
(§2) The mice of each of the groups were put in an UV box equipped with an UV B lamp, and were irradiated with UV light at a dose of 100 mJ/cm^2 corresponding to minimal erythemal dose (MED). UV light was irradiated one time a day, three times a week for 4 weeks while increasing the dose of UV light from 100 mJ/cm^2 at the first week to 200 mJ/cm^2 at the second week, 300 mJ/cm^2 at the third week and 400 mJ/cm^2 at the fourth week so as to adapt the mice to UV light. Following the fourth week, the mice were irradiated with UV light at a dose of 400 mJ/cm^2 for 6 weeks, and thus the hairless mice were exposed to UV light for a total of 10 weeks, thereby inducing skin photoaging. (Kilgman L H, Clin Dermatol 14:183-195, 1996). In the case of the test group, starting from 4 weeks after UV irradiation, a composition containing 1,2,3,4,6-penta-O-galloyl-beta-D-glucose was dissolved in a propylene glycol solution containing 30% ethanol (7:3 [v/v] propylene glycol:ethanol) and applied to the skin of the mice in an amount of 10 mg/200 μl/4 cm^2. […]

[5] = tested on: albino SKH-1 hairless mice; assay: Epidermal thickening induced by UV light in hairless mouse model (H&E staining); format: in vivo; settings: UV B 10 weeks, topical 10 mg/200 μl/4 cm^2
Excerpt: as §2, with “cm^2. In the case of the group treated with UV light alone, a composition containing no 1,2,3,4,6-penta-O-galloyl-beta-D-glucose was applied to the mice in an amount of 200 μl/4 cm^2 in the same manner as the test group.” for “cm^2.”

[6] = tested on: albino SKH-1 hairless mice; assay: Collagen formation/degradation after UV light in hairless mouse model (masson trichome staining); format: in vivo; settings: UV B 10 weeks, topical 10 mg/200 μl/4 cm^2
Excerpt: as §2, with “cm^2. In the case of the group treated with UV light alone, a composition containing no 1,2,3,4,6-penta-O-galloyl-beta-D-glucose was applied to the mice in an amount of 200 μl/4 cm^2 in the same manner as the test group.” for “cm^2.”

[7] = tested on: type I procollagen; assay: Type I procollagen expression in skin of UV-irradiated hairless mice (immunohistochemistry); format: in vivo, mouse; settings: UV B 10 weeks, topical 10 mg/200 μl/4 cm^2
Excerpt: as §2, with “cm^2. In the case of the group treated with UV light alone, a composition containing no 1,2,3,4,6-penta-O-galloyl-beta-D-glucose was applied to the mice in an amount of 200 μl/4 cm^2 in the same manner as the test group.” for “cm^2.”

[8] = tested on: MMP-1; assay: MMP-1 expression in skin of UV-irradiated hairless mice (immunohistochemistry); format: in vivo, mouse; settings: UV B 10 weeks, topical 10 mg/200 μl/4 cm^2
Excerpt: as §2, with “cm^2. In the case of the group treated with UV light alone, a composition containing no 1,2,3,4,6-penta-O-galloyl-beta-D-glucose was applied to the mice in an amount of 200 μl/4 cm^2 in the same manner as the test group.” for “cm^2.”

[9] = human normal dermal fibroblasts, UV A 50 mJ/cm^2 or UV B 170 mJ/cm^2, 1 and 10 μg/ml, 24 hours, concentration-dependent, vs UV light alone
[10] = in vitro, UV-irradiated human skin fibroblasts, comparison with EGCG control group

## O=C(OC[C@H]1O[C@@H](OC(=O)c2cc(O)c(O)c(O)c2)[C@H](OC(=O)c2cc(O)c(O)c(O)c2)[C@@H](OC(=O)c2cc(O)c(O)c(O)c2)[C@@H]1OC(=O)c1cc(O)c(O)c(O)c1)c1cc(O)c(O)c(O)c1 [1,2,3,4,6-penta-O-galloyl-beta-D-glucose]
[1]; [9]
  expression of type I procollagen: an increase in the expression of type I procollagen
[1]; [10]
  expression of type I procollagen compared to EGCG: marked increase in the expression of type I procollagen compared to the case of treatment with EGCG
[2]; [9]
  expression of MMP-1: a decrease in the expression of MMP-1
[2]; [10]
  inhibitory effect on MMP-1 compared to EGCG: much more superior to the MMP-1 inhibitory effect of EGCG
[3]
  expression of COX-2: reduced the expression of COX-2 in a concentration-dependent manner
[4]
  frequency of wrinkle formation: reduced the frequency of wrinkle formation
[5]
  thickening of the skin epidermal layer: the thickening of the skin epidermal layer was significantly decreased
[6]
  amount of collagen: the amount of collagen was increased compared to the group treated with UV light alone
  amount of damaged collagen: the amount of damaged collagen was decreased
[7]
  expression of type I procollagen in skin tissue: the expression of type I procollagen was increased compared to the group treated with UV light alone
[8]
  expression of MMP-1 in skin tissue: this increase in expression was inhibited
